Measurements as given in PubChem BioAssay (NCI).
Values joined by “and” are separate entries in the source; they are usually repeats but may differ in a detail not shown here. Equal values may be shown once.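 Each compound was tested at five concentrations against cells in 96-well plates for 48 hours. At the GI50, growth is halved. Definition used: TGI = concentration required for complete inhibition of growth.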

What was measured:
Experiment in all cases: inhibition of tumour cell growth, NCI panel, 48 h
[1] = test system: A498 renal
[2] = test system: BT-549 breast
[3] = test system: HCC-2998 colon
[4] = test system: HOP-92 NSCLC
[5] = test system: M14 melanoma
[6] = test system: MDA-MB-231 breast
[7] = test system: RXF 393 renal
[8] = test system: UACC-257 melanoma
[9] = test system: HOP-62 NSCLC
[10] = test system: SNB-19 CNS

Work on `CN1CCN(C(=O)c2c(NC(=O)NS(=O)(=O)c3ccccc3)sc3c2CCCCC3)CC1` yielded a GI50 [1] of 28.8 µM, a TGI [1] of 65.8 µM and a GI50 [2] of 26.3 µM. It also gave a TGI [2] of 98.6 µM, a GI50 [3] of 21.9 µM and a TGI [3] of 44.2 µM. For the same compound, the GI50 [4] was 27.1 µM, the TGI [4] was over 100 µM and the GI50 [5] was 21.6 µM. It also gave a TGI [5] of 49.8 µM, a GI50 [6] of 27.5 µM and a TGI [6] of 79.6 µM. The GI50 [7] was 34 µM, the TGI [7] was over 100 µM and the GI50 [8] was 35.6 µM. It also gave a TGI [8] of over 100 µM.
For `C[C@]1(C(=O)O)N[C@H](C(=O)O)CS1`, the GI50 [3] was 921 µM, the TGI [3] was over 1000 µM and the GI50 [9] was over 1000 µM. It also gave a TGI [9] of over 1000 µM, a GI50 [4] of over 1000 µM and a TGI [4] of over 1000 µM. It also gave a GI50 [5] of over 1000 µM, a TGI [5] of over 1000 µM and a GI50 [6] of over 1000 µM. The TGI [6] was over 1000 µM, the GI50 [7] was over 1000 µM and the TGI [7] was over 1000 µM. It also gave a GI50 [10] of over 1000 µM, a TGI [10] of over 1000 µM and a GI50 [8] of over 1000 µM. It also gave a TGI [8] of over 1000 µM.
With `CCOc1ccccc1N1C(=O)C(=O)C(c2nc3ccccc3o2)/C(=N\N)C1=O` (stereo not given) the TGI [1] was over 100 µM, the TGI [3] was over 100 µM and the TGI [9] was over 100 µM. It also gave a TGI [4] of over 100 µM, a TGI [5] of over 100 µM and a TGI [7] of over 100 µM. It also gave a TGI [10] of over 100 µM and a TGI [8] of over 100 µM.
`CSc1nc(SC)c2c(C(N)=S)[nH]nc2n1` showed a TGI [1] of 71.7 µM, a TGI [9] of 58.5 µM and a TGI [4] of 50.4 µM. For the same compound, the TGI [5] was over 100 µM, the TGI [7] was 61 µM and the TGI [10] was 90 µM. For the same compound, the TGI [8] was 52.5 µM.
`CC(C)(c1ccc(Oc2ccc(C#N)c(C#N)c2)cc1)c1ccc(Oc2ccc(C#N)c(C#N)c2)cc1` showed a GI50 [1] of over 100 µM, a TGI [1] of over 100 µM and a GI50 [3] of over 100 µM. For the same compound, the TGI [3] was over 100 µM, the GI50 [9] was over 100 µM and the TGI [9] was over 100 µM. It also gave a GI50 [4] of over 100 µM, a TGI [4] of over 100 µM and a GI50 [5] of over 100 µM. For the same compound, the TGI [5] was over 100 µM, the GI50 [7] was over 100 µM and the TGI [7] was over 100 µM. It also gave a GI50 [10] of over 100 µM and a TGI [10] of over 100 µM.
In the case of `CC1=C(C(=O)Nc2ccc([N+](=O)[O-])cc2)C(c2ccccc2O)C(C(=O)Nc2ccc([N+](=O)[O-])cc2)=C(C)N1`, the TGI [1] is reported as 66.4 µM, the TGI [3] is reported as 27.2 µM and the TGI [9] is reported as 31.9 µM. For the same compound, the TGI [4] was 40.1 µM, the TGI [5] was 45.1 µM and the TGI [7] was 45.9 µM. For the same compound, the TGI [10] was over 100 µM and the TGI [8] was 51.1 µM.
`CCOC(=O)c1cc2c(cn1)[nH]c1cccc(N)c12` was tested, and the TGI [3] was over 100 µM, the TGI [9] was over 100 µM and the TGI [4] was over 100 µM. The TGI [5] was over 100 µM, the TGI [7] was over 100 µM and the TGI [10] was over 100 µM. It also gave a TGI [8] of over 100 µM.
For `CC1(C)CCC[C@]2(C)c3cc(O)ccc3CC[C@@H]12`, the GI50 [1] was 16.2 µM, the TGI [1] was 29.7 µM and the GI50 [2] was 19.4 µM. It also gave a TGI [2] of 33.5 µM, a GI50 [5] of 28.2 µM and a TGI [5] of over 100 µM. For the same compound, the GI50 [6] was 16.2 µM, the TGI [6] was 30.4 µM and the GI50 [7] was 16.1 µM. It also gave a TGI [7] of 35.1 µM, a GI50 [10] of 17 µM and a TGI [10] of 33.9 µM. For the same compound, the GI50 [8] was 19.6 µM and the TGI [8] was 36 µM.
`CCOc1ccc2nc(-c3cccc(OCC(=O)NC(C)C)c3)nc(Nc3ccc(-c4cn[nH]c4)cc3)c2c1` was tested, and the GI50 [1] was 2.54 µM, the TGI [1] was 9.85 µM and the GI50 [3] was 1.45 µM. For the same compound, the TGI [3] was 7.91 µM, the GI50 [9] was 0.399 µM and the TGI [9] was 2.22 µM. The GI50 [4] was 0.452 µM, the TGI [4] was 3.29 µM and the GI50 [5] was 1.22 µM. It also gave a TGI [5] of 10.5 µM, a GI50 [6] of 1.68 µM and a TGI [6] of 10.7 µM. It also gave a GI50 [7] of 0.401 µM, a TGI [7] of 2.16 µM and a GI50 [10] of 0.598 µM. The TGI [10] was 3.76 µM, the GI50 [8] was 1.79 µM and the TGI [8] was 4.12 µM.
`Nc1nc(NC2C=C(CO)C(O)C2O)c([N+](=O)[O-])c(=O)[nH]1` (stereo not given) was tested, and the TGI [1] was over 100 µM, the TGI [3] was over 100 µM and the TGI [9] was over 100 µM. For the same compound, the TGI [4] was over 100 µM, the TGI [5] was over 100 µM and the TGI [7] was over 100 µM. It also gave a TGI [10] of over 100 µM and a TGI [8] of over 100 µM.
In the case of `COc1ccc(C2=Nc3c/c(=C\c4c(O)[nH]c5ccc(Cl)cc45)ccc3=N2)cc1`, the GI50 [1] is reported as 1.33 µM, the TGI [1] is reported as 7.78 µM and the GI50 [3] is reported as 1.24 µM. The TGI [3] was 2.51 µM, the GI50 [9] was 1.82 µM and the TGI [9] was 4.02 µM. It also gave a GI50 [5] of 1.29 µM, a TGI [5] of 3.67 µM and a GI50 [7] of 1.58 µM. The TGI [7] was 3.15 µM, the GI50 [10] was 1.84 µM and the TGI [10] was 5.85 µM.
Compound `CCCCN=C(NC#N)N(Cc1ccccc1)Cc1ccccc1` has a TGI [1] of 63.7 µM, a TGI [3] of 62.1 µM and a TGI [9] of 62 µM. The TGI [4] was 45.5 µM, the TGI [5] was 53.3 µM and the TGI [7] was 65.5 µM. For the same compound, the TGI [10] was over 100 µM and the TGI [8] was 64.9 µM.
Work on `CC(C)(O)[C@@H]1CC[C@@]2(C)CCC[C@H](O)[C@H]2C1` yielded a TGI [1] of over 100 µM, a TGI [3] of over 100 µM and a TGI [9] of over 100 µM. For the same compound, the TGI [4] was over 100 µM, the TGI [5] was over 100 µM and the TGI [10] was over 100 µM. It also gave a TGI [8] of over 100 µM.
With `O=C1C(Cl)=C(Nc2cccc(O)c2)C(=O)N1Cc1ccc(Cl)cc1` the GI50 [1] was 5 µM, the TGI [1] was 21.8 µM and the GI50 [2] was 2.54 µM. The TGI [2] was 16.6 µM, the GI50 [9] was 4.55 µM and the TGI [9] was 23 µM. For the same compound, the GI50 [5] was 4.43 µM, the TGI [5] was 23.2 µM and the GI50 [6] was 1.1 µM. The TGI [6] was 5.64 µM, the GI50 [7] was 3.95 µM and the TGI [7] was over 100 µM. For the same compound, the GI50 [10] was 2.64 µM, the TGI [10] was 23.5 µM and the GI50 [8] was 8.18 µM. For the same compound, the TGI [8] was 25 µM.
In the case of `COc1ccc2nc(NCN3C(=O)c4ccccc4C3=O)sc2c1`, the TGI [1] is reported as over 100 µM, the TGI [2] is reported as over 100 µM and the TGI [9] is reported as over 100 µM. For the same compound, the TGI [4] was over 100 µM, the TGI [5] was over 100 µM and the TGI [6] was over 100 µM. It also gave a TGI [7] of over 100 µM, a TGI [10] of over 100 µM and a TGI [8] of over 100 µM.
`NC(=S)N/N=C/c1ccc(O)cn1` was tested, and the GI50 [1] was 12.4 µM and 36 µM, the TGI [1] was 131 µM and 292 µM and the TGI [2] was over 670 µM. The GI50 [9] was 10.6 µM and 5.65 µM, the TGI [9] was 35.7 µM and 16.9 µM and 74.6 µM and the GI50 [4] was 6.73 µM. For the same compound, the TGI [4] was over 1300 µM, the GI50 [5] was 16.3 µM and the TGI [5] was 35.6 µM and 25.6 µM. For the same compound, the TGI [6] was over 427 µM, the GI50 [7] was 20.5 µM and 83.3 µM and 14.6 µM and the TGI [7] was > 1500 µM and 552 µM. The GI50 [10] was 29.2 µM and 8.2 µM, the TGI [10] was 1020 µM and > 1360 µM and the GI50 [8] was 25.6 µM and 34 µM. For the same compound, the TGI [8] was 74.2 µM and 112 µM and 149 µM.
With `CN1CCC(C(=O)Nc2n[nH]c3nc(-c4ccc(O)cc4)c(Br)cc23)CC1` the GI50 [2] was 1.6 µM and 2.31 µM, the TGI [2] was 16.4 µM and 16.9 µM and the GI50 [3] was 1.08 µM and 1.32 µM. For the same compound, the TGI [3] was 5.72 µM and 8.32 µM, the GI50 [9] was 2.39 µM and 2.43 µM and the TGI [9] was > 22.6 µM and 15.8 µM. The GI50 [4] was 0.97 µM, the TGI [4] was 5.04 µM and the GI50 [5] was 3.47 µM and 4.68 µM. The TGI [5] was 8.42 µM and 9.62 µM, the GI50 [6] was 1.4 µM and 3.97 µM and the TGI [6] was 11.3 µM and 16 µM. The GI50 [7] was 0.442 µM and 0.485 µM, the TGI [7] was 1.4 µM and 1.6 µM and the GI50 [10] was 1.12 µM and 2.97 µM. The TGI [10] was over 25 µM, the GI50 [8] was 4.3 µM and 6.17 µM and the TGI [8] was 12.3 µM and 14.6 µM.
Compound `Cc1cc(Oc2cnc(=O)[nH]c2)cs1` has a TGI [1] of over 100 µM, a TGI [2] of over 100 µM and a TGI [3] of over 100 µM. The TGI [9] was over 100 µM, the TGI [5] was over 100 µM and the TGI [6] was over 100 µM. The TGI [10] was over 100 µM and the TGI [8] was over 100 µM.
